According to US7691864B2, “Anti-hypertensive composition and methods of treatment” (University of Florida, priority 1994, dated 2010):

Test system: Male Sprague Dawley rats
Test: Blood pressure and heart rate in carotid-catheterized rats after I.P. dosing
Type: in vivo, rat
Experimental: Male Sprague Dawley rats averaging 400 g were anesthetized with sodium pentobarbital, 50 mg/kg I.P. The animals' neck and shoulder areas were shaved and prepped for surgery. The carotid artery was isolated and clamped using an arterial hemostat. A nick was made in the artery and a segment of PE-50 intramedic tubing was inserted, directed towards the heart and tied into place. The tubing was then flushed with heparin (100 μ/ml) and skin tunneled to the shoulder area. A stylet was inserted into the tip of the catheter to prevent blood leakage. The external incisions were closed with 11 mm staples.
The animals were fasted and allowed to recover overnight. The following morning, the stylet was removed and the tubing flushed with the heparin solution. The rats were placed into individual cages and hooked up to a transducer/oscillograph. The animals were allowed to stabilize in the cages for one-half hour before any recordings began. The oscillograph was then turned on and baseline recordings of the heart rate and blood pressure were made. The rats were given diethylhomospermine in sterile normal saline at a dose of 121.9 or 10 mg/kg I.P. The animals' heart rate and blood pressure were evaluated at t=0, 0.5 (or 1), 3, 5, 10, 15 and 20 minutes post-drug.

[1] = 10 mg/kg I.P., 10 min post-drug
[2] = 10 mg/kg I.P., 15 min post-drug
[3] = 10 mg/kg I.P., 20 min post-drug
[4] = 10 mg/kg I.P., time 0 min (baseline)
[5] = 121.9 mg/kg I.P., 0.5 min post-drug
[6] = 121.9 mg/kg I.P., 3 min post-drug
[7] = 121.9 mg/kg I.P., 5 min post-drug
[8] = 121.9 mg/kg I.P., 10 min post-drug
[9] = 121.9 mg/kg I.P., 15 min post-drug
[10] = 121.9 mg/kg I.P., 20 min post-drug
[11] = 121.9 mg/kg I.P., time 0 min (baseline)

CCNCCCCNCCCCNCCCCNCC [diethylhomospermine]
Blood Pressure (10 mg/kg I.P., 1 min post-drug): 105/95
Heart Rate (10 mg/kg I.P., 1 min post-drug): 426 b.p.m.
Blood Pressure (10 mg/kg I.P., 3 min post-drug): 110/99
Heart Rate (10 mg/kg I.P., 3 min post-drug): 426 b.p.m.
Blood Pressure (10 mg/kg I.P., 5 min post-drug): 110/98
Heart Rate (10 mg/kg I.P., 5 min post-drug): 426 b.p.m.
Blood Pressure [1]: 105/97
Heart Rate [1]: 402 b.p.m.
Blood Pressure [2]: 105/97
Heart Rate [2]: 390 b.p.m.
Blood Pressure [3]: 107/100
Heart Rate [3]: 402 b.p.m.
Blood Pressure [4]: 135/120
Heart Rate [4]: 414 b.p.m.
Blood Pressure [5]: 75/68
Heart Rate [5]: 468 b.p.m.
Blood Pressure [6]: 52/44
Heart Rate [6]: 402 b.p.m.
Blood Pressure [7]: 51/42
Heart Rate [7]: 354 b.p.m.
Blood Pressure [8]: 42/40
Heart Rate [8]: 336 b.p.m.
Blood Pressure [9]: 39/34
Heart Rate [9]: 354 b.p.m.
Blood Pressure [10]: 30/28
Heart Rate [10]: 348 b.p.m.
Blood Pressure [11]: 130/120
Heart Rate [11]: 432 b.p.m.
